According to patent US12516038B2, “Inhibitors of antigen presentation by HLA-DR” (Janssen Pharmaceutica NV, priority 2020, dated 2026):

What was measured:
[1] = system: human peripheral blood CD4+ helper T cells; test: Pan-CD4+ T cell activation (off-target assay); format: cell-based; settings: anti-CD3/anti-CD28 stimulation, IL-2 production by ELISA
How it was run: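 Human peripheral blood CD4+ T cells, with no APCs present, were stimulated with plate-bound anti-CD3 (1 μg/mL coating) plus soluble anti-CD28 (1 μg/mL) in the presence of compound or vehicle for 24 h. IL-2 in the supernatant was quantified by ELISA.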

HLA-DRB1*0401 = HLA-DRB1*0401 (Homo sapiens (Human), UniProt P01903+P01911, A100K/A169T/DEL228-266/F76Y/I96L/K127E/L162R/M171V/N62H/P40V/Q125Y/R42H/S133A/S149N/S66Y/V115G/V209L/W38E); test: HLA-DR4 HTRF assay; format: binding; settings: inhibition of loading of Alexa Fluor 647-labeled Cit-CII peptide onto HLA-DR4 (CLIP cleaved)
How it was run: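 HLA-DRB1*04:01 construct (α/β fused to human Fc, CLIP pre-cleaved by HRV3C overnight at 4° C) at 3 nM was preincubated 45 min with compound and 1 nM anti-Fc-Tb donor, then 40 nM Alexa647-Cit-CII1236-1249 peptide added. After 90 min at 37° C, the 665/620 nm HTRF ratio gave % inhibition; IC50 by nonlinear regression.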

[2] = system: HLA-DR4 restricted mouse T cell hybridoma line (DR4.CII.36.8) with HLA-DRB1*04:01-expressing Boleth cells; test: HLA-DR4-restricted peptide-specific T cell-based assay (hybridoma assay); settings: 6 h, inhibition of IL-2 production, CII259-273 peptide presented by Boleth cells
How it was run: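 Boleth cells (HLA-DRB1*04:01 B cell line) pre-incubated with compound 1 h at 37° C. in DMEM/1% FCS, then DR4.CII.36.8 mouse T cell hybridoma (CII259-273-specific) added for 6 h with CII259-273 peptide. Supernatant mouse IL-2 by AlphaLISA; IC50 by 4-PL fit of 8-point duplicate titrations.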

CC[C@H]1COc2cc(O[C@H](c3ccncc3)c3ccc(C(N)=O)cc3)ccc2C1=O (single isomer, unassigned) [Example 45b, 4-((*S)—(((*S)-3-ethyl-4-oxochroman-7-yl)oxy)(pyridin-4-yl)methyl)benzamide]
IC50 ([1]; Homo sapiens, T-cell, 24 h): > 15000 nM | IC50 (HLA-DRB1*0401): 1400 nM | IC50 ([2]; Mus musculus, T-cell): 10000 nM

CC[C@@H]1COc2cc(O[C@@H](c3ccncc3)c3ccc(C(N)=O)cc3)ccc2C1=O (single isomer, unassigned) [Example 46a, 4-((*R)—(((*R)-3-ethyl-4-oxochroman-7-yl)oxy)(pyridin-4-yl)methyl)benzamide]
IC50 ([1]; Homo sapiens, T-cell, 24 h): > 15000 nM | IC50 (HLA-DRB1*0401): 970 nM | IC50 ([2]; Mus musculus, T-cell): 1500 nM

CC[C@H]1COc2cc(O[C@@H](c3ccncc3)c3ccc(C(N)=O)cc3)ccc2C1=O (single isomer, unassigned) [Example 46b, 4-((*R)—(((*S)-3-ethyl-4-oxochroman-7-yl)oxy)(pyridin-4-yl)methyl)benzamide]
IC50 ([1]; Homo sapiens, T-cell, 24 h): 5000 nM | IC50 (HLA-DRB1*0401): 1300 nM | IC50 ([2]; Mus musculus, T-cell): 170 nM

Cc1c(O[C@@H](c2ccncc2)c2ccc(C(N)=O)cc2)ccc2c1OCCC2=O (single isomer, unassigned) [Example 48a, (*R)-4-(((8-methyl-4-oxochroman-7-yl)oxy)(pyridin-4-yl)methyl)benzamide]
IC50 ([1]; Homo sapiens, T-cell, 24 h): 9900 nM | IC50 (HLA-DRB1*0401): 680 nM | IC50 [2]: 140 nM

Cc1c(O[C@@H](c2ccncc2)c2ccc(C(N)=O)cc2)ccc2c1OCCC2=O (single isomer, unassigned) [Example 48b, (*S)-4-(((8-methyl-4-oxochroman-7-yl)oxy)(pyridin-4-yl)methyl)benzamide]
IC50 ([1]; 24 hrs): > 15000 nM | IC50 (HLA-DRB1*0401): 690 nM | IC50 [2]: 1100 nM

Cc1cc2c(cc1O[C@@H](c1ccncc1)c1ccc(C(N)=O)cc1)OCCC2=O (single isomer, unassigned) [Example 49a, (*R)-4-(((6-Methyl-4-oxochroman-7-yl)oxy)(pyridin-4-yl)methyl)benzamide]
IC50 ([1]; Homo sapiens, T-cell, 24 h): 9900 nM | IC50 (HLA-DRB1*0401): 570 nM | IC50 ([2]; Mus musculus, T-cell): 200 nM

Cc1cc2c(cc1O[C@H](c1ccncc1)c1ccc(C(N)=O)cc1)OCCC2=O (single isomer, unassigned) [Example 49b, (*S)-4-(((6-Methyl-4-oxochroman-7-yl)oxy)(pyridin-4-yl)methyl)benzamide]
IC50 ([1]; Homo sapiens, T-cell, 24 h): 15000 nM | IC50 (HLA-DRB1*0401): 1000 nM | IC50 ([2]; Mus musculus, T-cell): 3000 nM

NC(=O)c1ccc([C@@H](Oc2ccc3c(c2F)OCCC3=O)c2ccncc2)cc1 (single isomer, unassigned) [Example 50a, (*R)-4-(((8-Fluoro-4-oxochroman-7-yl)oxy)(pyridin-4-yl)methyl)benzamide]
IC50 ([1]; Homo sapiens, T-cell, 24 h): 9900 nM | IC50 (HLA-DRB1*0401): 1900 nM | IC50 ([2]; Mus musculus, T-cell): 240 nM

NC(=O)c1ccc([C@H](Oc2ccc3c(c2F)OCCC3=O)c2ccncc2)cc1 (single isomer, unassigned) [Example 50b, (*S)-4-(((8-Fluoro-4-oxochroman-7-yl)oxy)(pyridin-4-yl)methyl)benzamide]
IC50 ([1]; Homo sapiens, T-cell, 24 h): > 15000 nM | IC50 (HLA-DRB1*0401): 1900 nM | IC50 ([2]; Mus musculus, T-cell): 2500 nM

NC(=O)c1ccc([C@@H](Oc2cc(F)c3c(c2)OCCC3=O)c2ccncc2)cc1 (single isomer, unassigned) [Example 51a, (*R)-4-(((5-Fluoro-4-oxochroman-7-yl)oxy)(pyridin-4-yl)methyl)benzamide]
IC50 ([1]; Homo sapiens, T-cell, 24 h): 15000 nM | IC50 (HLA-DRB1*0401): 3600 nM | IC50 ([2]; Mus musculus, T-cell): 250 nM

NC(=O)c1ccc([C@@H](Oc2cc3c(cc2F)C(=O)CCO3)c2ccncc2)cc1 (single isomer, unassigned) [Example 52a, (*R)-4-(((6-Fluoro-4-oxochroman-7-yl)oxy)(pyridin-4-yl)methyl)benzamide]
IC50 ([1]; Homo sapiens, T-cell, 24 h): > 15000 nM | IC50 (HLA-DRB1*0401): 230 nM | IC50 ([2]; Mus musculus, T-cell): 560 nM

NC(=O)c1ccc([C@@H](Oc2ccc3c(c2-c2ccccc2)OCCC3=O)c2ccncc2)cc1 (single isomer, unassigned) [Example 53a, (*R)-4-(((4-oxo-8-phenylchroman-7-yl)oxy)(pyridin-4-yl)methyl)benzamide]
IC50 ([1]; Homo sapiens, T-cell, 24 h): 2100 nM | IC50 (HLA-DRB1*0401): 800 nM | IC50 ([2]; Mus musculus, T-cell): 740 nM

NC(=O)c1ccc([C@H](Oc2ccc3c(c2-c2ccccc2)OCCC3=O)c2ccncc2)cc1 (single isomer, unassigned) [Example 53b, (*S)-4-(((4-oxo-8-phenylchroman-7-yl)oxy)(pyridin-4-yl)methyl)benzamide]
IC50 ([1]; Homo sapiens, T-cell, 24 h): 3200 nM | IC50 (HLA-DRB1*0401): 600 nM | IC50 ([2]; Mus musculus, T-cell): 450 nM

NC(=O)c1ccc([C@@H](Oc2cc3c(cc2-c2ccccc2)C(=O)CCO3)c2ccncc2)cc1 (single isomer, unassigned) [Example 54a, (*R)-4-(((4-oxo-6-phenylchroman-7-yl)oxy)(pyridin-4-yl)methyl)benzamide]
IC50 ([1]; Homo sapiens, T-cell, 24 h): 520 nM | IC50 (HLA-DRB1*0401): 630 nM | IC50 ([2]; Mus musculus, T-cell): 78 nM

NC(=O)c1ccc([C@H](Oc2cc3c(cc2-c2ccccc2)C(=O)CCO3)c2ccncc2)cc1 (single isomer, unassigned) [Example 54b, (*S)-4-(((4-oxo-6-phenylchroman-7-yl)oxy)(pyridin-4-yl)methyl)benzamide]
IC50 ([1]; Homo sapiens, T-cell, 24 h): 15000 nM | IC50 (HLA-DRB1*0401): 870 nM | IC50 ([2]; Mus musculus, T-cell): 4300 nM

CC1(C)COc2cc(O[C@@H](c3ccncc3)c3ccc(C(N)=O)cc3)ccc2C1=O (single isomer, unassigned) [Example 56a, (*R)-4-(((3,3-dimethyl-4-oxochroman-7-yl)oxy)(pyridin-4-yl)methyl)benzamide]
IC50 ([1]; Homo sapiens, T-cell, 24 h): 4600 nM | IC50 (HLA-DRB1*0401): 1400 nM | IC50 ([2]; Mus musculus, T-cell): 1700 nM

CC1(C)COc2cc(O[C@H](c3ccncc3)c3ccc(C(N)=O)cc3)ccc2C1=O (single isomer, unassigned) [Example 56b, (*S)-4-(((3,3-dimethyl-4-oxochroman-7-yl)oxy)(pyridin-4-yl)methyl)benzamide]
IC50 ([1]; Homo sapiens, T-cell, 24 h): > 15000 nM | IC50 (HLA-DRB1*0401): 1300 nM | IC50 ([2]; Mus musculus, T-cell): 6000 nM

Cc1c(O[C@@H](c2ccc(Cl)cc2)c2ccc(C(N)=O)cc2)ccc2c1OCCC2=O (single isomer, unassigned) [Example 57a, (*R)-4-((4-chlorophenyl)((8-methyl-4-oxochroman-7-yl)oxy)methyl)benzamide]
IC50 ([1]; Homo sapiens, T-cell, 24 h): > 15000 nM | IC50 (HLA-DRB1*0401): 2300 nM | IC50 ([2]; Mus musculus, T-cell): 4800 nM

Cc1c(O[C@@H](c2ccncc2)c2ccc(C(N)=O)cc2)c(F)cc2c1OCCC2=O (single isomer, unassigned) [Example 58a, (*R)-4-(((6-fluoro-8-methyl-4-oxochroman-7-yl)oxy)(pyridin-4-yl)methyl)benzamide]
IC50 ([1]; Homo sapiens, T-cell, 24 h): 5300 nM | IC50 (HLA-DRB1*0401): 330 nM | IC50 ([2]; Mus musculus, T-cell): 180 nM

Cc1c(O[C@H](c2ccncc2)c2ccc(C(N)=O)cc2)c(F)cc2c1OCCC2=O (single isomer, unassigned) [Example 58b, (*S)-4-(((6-fluoro-8-methyl-4-oxochroman-7-yl)oxy)(pyridin-4-yl)methyl)benzamide]
IC50 ([1]; Homo sapiens, T-cell, 24 h): 9900 nM | IC50 (HLA-DRB1*0401): 730 nM | IC50 ([2]; Mus musculus, T-cell): 2600 nM

Cc1c(O[C@H](c2ccc(C#N)cc2)c2ccc(C(N)=O)cc2)ccc2c1OCCC2=O (single isomer, unassigned) [Example 59a, (*R)-4-((4-cyanophenyl)((8-methyl-4-oxochroman-7-yl)oxy)methyl)benzamide]
IC50 ([1]; Homo sapiens, T-cell, 24 h): 4700 nM | IC50 (HLA-DRB1*0401): 1200 nM | IC50 ([2]; Mus musculus, T-cell): 3200 nM

Cc1c(O[C@H](c2ccc(C(N)=O)cc2)c2cccc(C#N)c2)ccc2c1OCCC2=O (single isomer, unassigned) [Example 60a, (*R)-4-((3-cyanophenyl)((8-methyl-4-oxochroman-7-yl)oxy)methyl)benzamide]
IC50 ([1]; Homo sapiens, T-cell, 24 h): 4700 nM | IC50 (HLA-DRB1*0401): 1800 nM | IC50 ([2]; Mus musculus, T-cell): 740 nM

Cc1c(O[C@@H](c2ccc(C(N)=O)cc2)c2cccc(C#N)c2)ccc2c1OCCC2=O (single isomer, unassigned) [Example 60b, (*S)-4-((3-cyanophenyl)((8-methyl-4-oxochroman-7-yl)oxy)methyl)benzamide]
IC50 ([1]; Homo sapiens, T-cell, 24 h): 9900 nM | IC50 (HLA-DRB1*0401): 2000 nM | IC50 ([2]; Mus musculus, T-cell): 2300 nM

Cc1c(O[C@H](c2ccc(C(N)=O)cc2)c2ccccc2C#N)ccc2c1OCCC2=O (single isomer, unassigned) [Example 61a, (*R)-4-((2-cyanophenyl)((8-methyl-4-oxochroman-7-yl)oxy)methyl)benzamide]
IC50 ([1]; Homo sapiens, T-cell, 24 h): 2700 nM | IC50 (HLA-DRB1*0401): 990 nM | IC50 ([2]; Mus musculus, T-cell): 4600 nM

Cc1c(O[C@@H](c2ccc(C(N)=O)cc2)c2ccccc2C#N)ccc2c1OCCC2=O (single isomer, unassigned) [Example 61b, (*S)-4-((2-cyanophenyl)((8-methyl-4-oxochroman-7-yl)oxy)methyl)benzamide]
IC50 ([1]; Homo sapiens, T-cell, 24 h): > 15000 nM | IC50 (HLA-DRB1*0401): 960 nM | IC50 ([2]; Mus musculus, T-cell): 5200 nM

Cc1c(O[C@H](c2ccc(C(N)=O)cc2)c2ccc(Cl)cn2)ccc2c1OCCC2=O (single isomer, unassigned) [Example 62a, (*R)-4-((5-chloropyridin-2-yl)((8-methyl-4-oxochroman-7-yl)oxy)methyl)benzamide]
IC50 ([1]; Homo sapiens, T-cell, 24 h): 4700 nM | IC50 (HLA-DRB1*0401): 1500 nM | IC50 ([2]; Mus musculus, T-cell): 8500 nM
